Series [1] is described as follows: aqueous solubility. Type of series: physicochemical. The settings on record: in words.
The test system of series [2] is Bacillus subtilis 168. Type of series: cell-based.
In series [3] the test system is Escherichia coli DH5a. It is filed as cell-based.
Series [4] relates to B. anthracis Sterne. Type of series: cell-based, Bacillus anthracis. As to conditions: 24 μM, 12 h treatment, duplicate, *P<0.01 vs DMSO-treated.
The test system of series [5] is MRSA (S. aureus NRS384). Nature of the series: cell density after 12 h treatment, MRSA. Type of series: cell-based, Staphylococcus aureus. As to conditions: 24 μM, duplicate, #P<0.01 vs DMSO-treated MRSA.
The test system of series [6] is B. anthracis Sterne. Type of series: cell-based, Bacillus anthracis. As to conditions: 4 μM, 30 min, mid-exponential phase cells, 22 °C.
The subject of series [7] is other representative members of the genus Bacillus. Type of series: cell-based.
Series [8] relates to Bacillus anthracis Sterne. As to conditions: microbroth dilution method, ref [6], [10]; cited from earlier work.
The subject of series [9] is other members of the genus Bacillus. As to conditions: cited from earlier work.
Series [10] concerns BamL. As to conditions: cited from earlier work.

Entries after “also recorded” stand apart in the source; their conditions may differ. Bounds are passed on as bounds.

Consider RCTCTT [Arg-Az5], for which, in series [1], the aqueous solubility entry was “moderate solubility”.
On to plantazolicin [PZN], for which the “minimum inhibitory concentration (MIC)” value in [2] and in series [3] was more than 48 µM in each case. Moreover, the “bactericidal effect (cell density, 595 nm)” value in [4] was “bactericidal”. Also, the “antibiotic activity (cell density, 595 nm)” value in [5] is given as “not PZN displays antibiotic activity against MRSA”. Moreover, the cell lysis entry in series [6] is given as “induces major cell lysis above the MIC; also recorded: shows cell lysis”. For the same molecule, the “activity against other Bacillus (microbroth dilution)” value in series [7] was more than 48 µM. Moreover, the “susceptibility to purified PZN” value in [8] is on record as “the only organism susceptible to the action of purified PZN to date has been Bacillus anthracis”. In addition, the growth inhibitory activity entry in [9] was “weak growth inhibitory activity”.
`N=C(N)NCCC[C@H](N)C(=O)O` [Arg]: the acceptance as substrate result in [10] is “not accepted as a substrate”.
On to `NC(=O)[C@@H](N)CCCN=C(N)N` [Arg amide], for which the acceptance as substrate entry in [10] was “poorer substrate that is turned over by BamL but only under single-turnover conditions; also recorded: only so under near-single turnover conditions”.

The values are drawn from publication PMC4573583 (ACS chemical biology, 2015).
